Laboratory results: US20130245081A1, “Compositions and Methods for Treating Amyotrophic Lateral Sclerosis” (priority 2009, published 2013)

Assay: clinical
Settings: for CL/F / Fe / Ue / λz: Day 7, fasted; for CL renal: urine and plasma
Source text: A total of 54 subjects (30 subjects in Study CL001 and 24 subjects in Study CL002) were enrolled. Healthy, non-smoking, male and female subjects 30 to 60 years of age, inclusive, with normal or clinically acceptable physical examination and electrocardiogram (ECG) findings, systolic (90 to 140 mmHg) and diastolic (50 to 90 mmHg) blood pressure, and resting heart rate (50 to 100 bpm) who were willing to provide signed, written informed consent were eligible for enrollment. Female volunteers had to be of non-childbearing potential with negative pregnancy test results at screening and clinic check-in. Subjects with any history of neurodegenerative illnesses were excluded. The use of over-the-counter medications within 7 days prior to enrollment or prescription medications within 12 weeks prior to enrollment was prohibited.
In the second study, subjects were enrolled in 3 successive double-blind, placebo-controlled, panels of 8 subjects (n=6 active, n=2 placebo per panel).
Matching placebo capsules contained equivalent weights of microcrystalline cellulose. Capsules were administered orally with water. […] Subjects in the fasted cohorts were required to fast overnight for a minimum of 10 hours before dose administration. Subjects in the food cohort were required to fast overnight for a minimum of 10 hours before dose administration, with exception of the high fat/high calorie meal that was administered 30 minutes prior to drug administration. […] All available safety data were reviewed under blinded conditions to monitor for serious safety or tolerability events prior to proceeding with dose escalations.
In both studies, a complete collection was attempted for each urine sample interval.
Blood samples were collected into a 10 mL dipotassium ethylenediaminetetraacetic acid (K2-EDTA) Vacutainer® via an indwelling peripheral intravenous cannula or by direct venipuncture. Within 15 minutes of collection, the samples were centrifuged at 3000 rpm for 10 minutes at 4° C. After centrifugation, the plasma was divided into 2 aliquots of at least 1.5 mL each, placed into polypropylene containers, frozen, and stored at −20° C. until they were shipped for analysis.
Urine collected in each interval was well mixed, the pH was recorded, the total volume (or the weight and specific gravity) was recorded, and 2 aliquots of 20 mL each were collected into polypropylene containers and stored at −20° C. until they were shipped for analysis. All plasma and urine sample were shipped frozen on dry ice in 2 separate shipments per group (1 set of aliquots per shipment) to Eurofins AvTech Laboratories Inc. (Kalamazoo, Mich.) for bioanalytical analysis.
Plasma and urine concentrations were measured using validated liquid chromatography/mass spectrometry/mass spectrometry (LC/MS/MS) methods. […] The analytical procedure for analysis of plasma samples used a 100 μL aliquot of K2EDTA human plasma. The plasma sample was spiked with 20 μL of working internal standard solution and 20 μL of type 1 water for subject samples and QCs and 20 μL of the appropriate intermediate standard solution for standards. One hundred microliters ([…]) of 50% ammonium hydroxide solution was added to the sample followed by vortex mixing. One milliliter (1 mL) of tertbutyl methyl ether was then added and the sample was vortexed to extract the analyte and internal standard into the organic layer, followed by separation using flash freezing. The organic layer was decanted, evaporated to dryness, and the sample was reconstituted with 0.5 mL of reconstitution solution (0.1% ammonium hydroxide in 50:50 methanol; type 1 water (v/v/v)). A 10 μL aliquot of this reconstituted sample was injected into an LC/MS/MS system for analysis.

[1] = both, human, plasma, oral, 50 mg
[2] = both, human, plasma, oral, 100 mg
[3] = both, human, plasma, oral, 150 mg

Compound: CCCN[C@@H]1CCc2nc(N)sc2C1 [dexpramipexole, (6R)-2-amino-4,5,6,7-tetrahydro-6-(propylamino)benzothiazole]
- CL/F (50 mg Twice Daily): 437 ± 60.8 mL/min
- Fe (50 mg Twice Daily): 87.2 ± 10.26 % dose
- Ue (50 mg Twice Daily): 32.5 ± 3.82 mg
- λz (50 mg Twice Daily): 0.1039 ± 0.0193 h⁻¹
- CL/F (100 mg Twice Daily): 510 ± 57.4 mL/min
- Fe (100 mg Twice Daily): 75.5 ± 3.51 % dose
- Ue (100 mg Twice Daily): 56.3 ± 2.62 mg
- λz (100 mg Twice Daily): 0.0893 ± 0.0117 h⁻¹
- CL/F (150 mg Twice Daily): 507 ± 74.1 mL/min
- Fe (150 mg Twice Daily): 89.6 ± 7.83 % dose
- Ue (150 mg Twice Daily): 100.3 ± 8.76 mg
- λz (150 mg Twice Daily): 0.0895 ± 0.0184 h⁻¹
- dose recovered in the urine as unchanged parent drug (12-hour steady-state dosing period): approximately 84%
- AUC(0-t) [1]: 1450 ± 221 ng·h/mL
- Cmax at 7 day [1]: 191 ± 20.9 ng/mL
- Tmax [1]: 1.75 h
- Vd/F [1]: 255 ± 24 L
- half-life [1]: 6.87 ± 1.29 h
- AUC(0-t) [2]: 2470 ± 304 ng·h/mL
- Cmax at 7 day [2]: 306 ± 54.8 ng/mL
- Tmax [2]: 2.02 h
- Vd/F [2]: 348 ± 61.7 L
- half-life [2]: 7.89 ± 1.19 h
- AUC(0-t) [3]: 3750 ± 575 ng·h/mL
- Cmax [3]: 479 ± 74.6 ng/mL
- Tmax [3]: 2.18 h
- Vd/F [3]: 349 ± 75.8 L
- half-life [3]: 8.05 ± 1.8 h
- CL renal (both, human, oral, 50 mg): 385 ± 90.3 mL/min
- CL renal (both, human, oral, 100 mg): 382 ± 62.7 mL/min
- CL renal (both, human, oral, 150 mg): 451 mL/min
